The target in this test is Telomerase reverse transcriptase (Homo sapiens) (UniProt O14746). Nature of the test: Inhibition of telomerase at 10 uM after 30 mins by TRAP assay.
Chain of Telomerase reverse transcriptase (Homo sapiens) (O14746 whole entry): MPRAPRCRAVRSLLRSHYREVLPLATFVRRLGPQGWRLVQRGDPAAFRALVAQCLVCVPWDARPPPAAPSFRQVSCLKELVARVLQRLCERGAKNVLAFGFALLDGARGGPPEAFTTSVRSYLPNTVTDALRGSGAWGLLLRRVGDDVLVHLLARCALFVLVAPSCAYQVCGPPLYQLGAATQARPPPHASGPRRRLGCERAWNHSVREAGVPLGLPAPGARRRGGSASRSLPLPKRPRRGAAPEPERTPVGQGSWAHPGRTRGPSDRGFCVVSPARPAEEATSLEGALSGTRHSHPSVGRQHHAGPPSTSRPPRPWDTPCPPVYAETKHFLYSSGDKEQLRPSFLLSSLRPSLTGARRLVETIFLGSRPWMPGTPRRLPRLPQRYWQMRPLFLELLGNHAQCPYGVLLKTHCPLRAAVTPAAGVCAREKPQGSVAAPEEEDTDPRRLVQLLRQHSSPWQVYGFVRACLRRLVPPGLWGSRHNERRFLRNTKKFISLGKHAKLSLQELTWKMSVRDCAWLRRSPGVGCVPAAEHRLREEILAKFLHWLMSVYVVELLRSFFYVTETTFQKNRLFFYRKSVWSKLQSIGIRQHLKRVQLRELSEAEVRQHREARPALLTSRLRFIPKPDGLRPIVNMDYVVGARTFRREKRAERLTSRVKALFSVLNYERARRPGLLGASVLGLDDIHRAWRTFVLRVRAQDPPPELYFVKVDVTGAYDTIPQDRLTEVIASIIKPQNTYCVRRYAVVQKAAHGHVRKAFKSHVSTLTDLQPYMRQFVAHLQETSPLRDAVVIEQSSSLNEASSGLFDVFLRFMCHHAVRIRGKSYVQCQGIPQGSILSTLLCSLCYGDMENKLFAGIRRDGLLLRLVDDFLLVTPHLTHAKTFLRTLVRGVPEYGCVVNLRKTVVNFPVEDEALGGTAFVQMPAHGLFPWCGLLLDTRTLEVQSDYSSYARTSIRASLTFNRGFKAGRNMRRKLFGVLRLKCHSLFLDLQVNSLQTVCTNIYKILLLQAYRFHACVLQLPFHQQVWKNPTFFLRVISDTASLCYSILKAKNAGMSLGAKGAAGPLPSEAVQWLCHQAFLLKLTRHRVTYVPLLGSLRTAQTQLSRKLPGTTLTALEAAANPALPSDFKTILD

What is called inhibition is the change of the read-out against control, counted positive when it falls. Higher therefore signals a strong effect. In turn, `CN1CCN(CCc2cc3cc4c(=O)n(CCN5CCCCC5)c(=O)c5cc6c(CCN7CCN(C)CC7)cc7cc8c(=O)n(CCN9CCCCC9)c(=O)c9cc2c2c3c(c45)c6c7c2c89)CC1` came in with an inhibition of 44%.

In turn, `O=c1c2cc3cc(CCN4CCCCC4)c4cc5c(=O)n(CCN6CCCCC6)c(=O)c6cc7cc(CCN8CCCCC8)c8cc(c(=O)n1CCN1CCCCC1)c2c1c3c4c(c65)c7c81` showed an inhibition of 38%.

Compound `CN(C)CCCn1c(=O)c2cc3cc(CCN4CCCCC4)c4cc5c(=O)n(CCCN(C)C)c(=O)c6cc7cc(CCN8CCCCC8)c8cc(c1=O)c2c1c3c4c(c65)c7c81` had an inhibition of 52%.

Turning to `CN(C)CCCn1c(=O)c2cc3cc(CCN4CCN(C)CC4)c4cc5c(=O)n(CCCN(C)C)c(=O)c6cc7cc(CCN8CCN(C)CC8)c8cc(c1=O)c2c1c3c4c(c65)c7c81`, the inhibition was determined as 66%.
